In patent publication US20220363662A1, “COMPOUNDS AS LXR AGONISTS” (Integral Biosciences Privated Limited, priority 2021, published 2022) one finds EC50 and IC50 data, which are given here for 15 compounds.

Assay [1] has as its target T1, LXR beta (Homo sapiens, UniProt P55055).
T1 construct: 5 μL of 4×LXR beta-LBD was added to each well (final concentration 5 nM); purchased Thermofisher PV4658
T1 sequence (P55055 222-460 limits assumed): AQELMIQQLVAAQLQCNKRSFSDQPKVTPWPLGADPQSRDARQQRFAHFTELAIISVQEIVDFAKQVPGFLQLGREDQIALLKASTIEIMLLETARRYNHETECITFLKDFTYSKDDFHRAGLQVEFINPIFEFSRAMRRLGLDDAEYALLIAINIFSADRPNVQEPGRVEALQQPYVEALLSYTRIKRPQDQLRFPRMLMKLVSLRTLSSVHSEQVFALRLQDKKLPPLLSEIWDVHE
In words: LXR beta agonist assay (Lanthascreen TR-FRET). To be noted: LXR beta-LBD 5 nM, read-out: LXR-β EC50. It counts as biochemical. Summed up:
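TR-FRET coactivator recruitment: 5 nM LXR beta-LBD with 100 nM Fl-D22 peptide and 10 nM Tb-anti-GST antibody (final) in Coregulator Buffer G, 60 min at 22° C, read hourly up to 4 hours. Duplicate three-fold titrations from 30 μM; EC50 by variable-slope nonlinear regression.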

Assay [2] addresses T2, LXR alpha (Homo sapiens, UniProt Q13133).
T2 construct: 5 μL of 4×LXR alpha-LBD was added to each well (final concentration 2.5 nM); purchased Thermofisher PV4655
T2 sequence (Q13133 209-447 limits assumed): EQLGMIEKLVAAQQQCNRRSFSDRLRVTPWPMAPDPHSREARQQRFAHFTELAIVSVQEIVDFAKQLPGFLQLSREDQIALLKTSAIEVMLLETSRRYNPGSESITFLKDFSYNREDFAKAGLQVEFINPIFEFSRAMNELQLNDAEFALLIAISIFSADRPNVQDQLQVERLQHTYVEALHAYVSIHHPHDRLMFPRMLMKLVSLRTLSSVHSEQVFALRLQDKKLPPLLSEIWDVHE
In words: LXR alpha agonist assay (Lanthascreen TR-FRET). The class given is biochemical. To be noted: LXR alpha-LBD 2.5 nM, read-out: LXR-α EC50. The protocol:
EC50 values of compounds against LXR alpha were determined at Integral BioSciences (India) using Lanthascreen TR-FRET (Thermofisher, Cat #PV4655). Assay was performed in a 20 μL final volume in a Black 384-well plate (Corning, Cat #4511). Dose response curve for the compounds were prepared in duplicates with starting concentration at 30 μM and a three-fold titration was performed. The reaction buffer consisted of TR-FRET Coregulator Buffer H. To the compound dilution, 5 μL of 4×LXR alpha-LBD was added to each well (final concentration 2.5 nM). An equal volume (5 μL) containing 4×Fl-D22/Tb-anti GST antibody (final concentration 250 nM/10 nM) was added to initiate the enzyme reaction and the reaction was incubated for 60 min at 22° C. after which the plates were read using BioTek Plate reader for TR-FRET every hour up to 4 hours.
Analysis was done using the standard curve by non-linear regression, variable slope inhibitor curve fits (Graph-Pad Prism) and EC50's of compounds were determined wherever possible.

Assay [3] relates to HepG2. Description: Cell viability assay (resazurin) in HepG2. The class given is cell-based. To be noted: Homo sapiens, 96 hr exposure. The protocol: (§1) HepG2 (ATCC® HB-8065™), hepatocellular carcinoma, A549 (ATCC® CCL-185™), lung epithelial carcinoma, MCF7 (ATCC® HTB-22™), mammary gland epithelial carcinoma, MDA-MB-231 (ATCC® HTB-26™), TNBC, MiaPaCa-2 (ATCC® CRL-1420™) & Panc-1 (ATCC® CRL-1469™), pancreatic epithelial carcinoma, HCT116 (ATCC® CCL-247™), colon epithelial carcinoma and U87MG (ATCC® HTB-14™), brain epithelial carcinoma cell lines respectively were seeded in the respective medium (DMEM, Cat #10569044 with 10% FBS, Cat #16000044; Gibco for HepG2, A549, MCF7, MDA-MB-231, MiaPaCa-2, Panc-1, HCT116 and MEM, Cat #11095080 with 10% FBS for U87MG). Cells were allowed to grow at 37° C. for 24 hr in 5% CO2 (culture conditions) in a Nuaire incubator (humidified). Serially diluted compounds (100 μl) were added to the culture plate 24 hr later and the cultures were further incubated in culture conditions for 96 hr. Experiment was terminated at the completion of 96 hr exposure to the drug by replacing the medium with 100 μl of 1 mM of resazurin (R7017; Sigma) prepared in culture medium and the plates were further incubated in culture conditions for 4 hr. Fluorescence was then measured using a multimodal plate reader (Biotek Synergy Neo) at an excitation wavelength of 535 nm and emission wavelength of 590 nm to obtain relative fluorescence units. Data analysis was done by subtracting the background fluorescence (only medium blank) value from each reading and then normalizing with the vehicle control (DMSO treated cells) to obtain percent survival/proliferation. Percent survival at different doses was used to calculate IC50 by fitting the curve to the “four-parameter variable slope logistic model” using Prism Graph Pad.

Assay [4] concerns MDA-MB-231. Description: Cell viability assay (resazurin) in MDA-MB-231. The class given is cell-based. Particulars: Homo sapiens, 96 hr exposure, read-out: MDA_MB-231 Cell IC50. Here is the method:
as §1

The test system of assay [5] is A549. In words: Cell viability assay (resazurin) in A549. The class given is cell-based. Particulars: Homo sapiens, 96 hr exposure. Here is the method: as §1
Assay [6] deals with THP1. Description: Cell viability assay in THP1. The class given is cell-based. To be noted: Homo sapiens, THP-1.
The subject of assay [7] is HCT116. In words: Cell viability assay (resazurin) in HCT116. It counts as cell-based. Particulars: Homo sapiens, HCT-116; 96 hr exposure. Here is the method: as §1
Assay [8] has as its system MCF7. Description: Cell viability assay (resazurin) in MCF7. It counts as cell-based. To be noted: Homo sapiens, 96 hr exposure. Here is the method:
as §1

For the compound `CN(C)C(=O)c1ccc(N2CCN(C3CC4(C3)CN(S(=O)(=O)c3ccccc3C(F)(F)F)C4)CC2)cc1Cl` [Compound 1.5, 2-chloro-N,N-dimethyl-4-(4-(2-(2-(trifluoromethyl)phenylsulfonyl)-2-azaspiro[3.3]heptan-6-yl)piperazin-1-yl)benzamide], the EC50 was 1.11 µM in assay [1] and greater than 30 µM in assay [2].

On to `O=C(N1CCC(C2CCN(c3cc(Cl)c4c(=O)[nH]ccc4c3)CC2)CC1)[C@](O)(c1ccccc1)C(F)(F)F` [Compound 1.19, (R)-8-chloro-6-(1′-(3,3,3-trifluoro-2-hydroxy-2-phenylpropanoyl)-4,4′-bipiperidin-1-yl)isoquinolin-1(2H)-one], for which the IC50 was determined as 3.7 µM in assay [3], 7.2 µM in assay [4] and 6.9 µM in assay [5]. The EC50 is 0.451 µM in assay [1] and 0.41 µM in assay [2].

As for `CC1CC(N2CC(Nc3ccc(C(=O)N(C)C)c(Cl)c3)C2)CCN1S(=O)(=O)c1ccccc1Cl` (stereo not drawn) [Compound 1.84, 2-chloro-4-(1-(1-(2-chlorophenylsulfonyl)-2-methylpiperidin-4-yl)azetidin-3-ylamino)-N,N-dimethylbenzamide], the EC50 in assay [1] was 1.14 µM; in assay [2], 16.1 µM.

Take `CN(C)C(=O)c1ccc(NC2CN(C3CCN(C(=O)C4(c5c(F)cccc5Cl)CCCC4)CC3)C2)cc1Cl` [Compound 1.56, 2-chloro-4-(1-(1-(1-(2-chloro-6-fluorophenyl)cyclopentanecarbonyl)piperidin-4-yl)azetidin-3-ylamino)-N,N-dimethylbenzamide]: the concentration for half-maximal inhibition (IC50) was determined as 12.9 µM in assay [3]; 13.8 µM in assay [4]; 14.5 µM in assay [6]; 12.4 µM in assay [5]; 12.4 µM in assay [7]; 12.8 µM in assay [8].

On to `CN(C)C(=O)c1ccc(OC2CN(C3CCN(C(=O)[C@](O)(c4ccccc4)C(F)(F)F)CC3)C2)cc1Cl` [Compound 1.77, (R)-2-chloro-N,N-dimethyl-4-(1-(1-(3,3,3-trifluoro-2-hydroxy-2-phenylpropanoyl)piperidin-4-yl)azetidin-3-yloxy)benzamide], for which, in assay [3], the IC50 is greater than 30 µM. The EC50 in assay [1] was determined as 1.53 µM; in assay [2], 19.5 µM.

As to `CC(C)C(O)(C(=O)N1CCC(N2CC(Nc3ccc(C(=O)N(C)C)c(Cl)c3)C2)CC1)C(F)(F)F` (stereo not drawn) [Compound 1.43, 2-chloro-4-(1-(1-(2-hydroxy-3-methyl-2-(trifluoromethyl)butanoyl)piperidin-4-yl)azetidin-3-ylamino)-N,N-dimethylbenzamide], the IC50 in assay [4], in assay [6], in assay [5] and in assay [7] was greater than 30 µM each time. Further, the EC50 in assay [1] was 4.68 µM.

Consider `CN(C)C(=O)c1ccc(N[C@H]2CCN(C3CCN(C(=O)[C@](O)(c4ccccc4)C(F)(F)F)CC3)C2)cc1Cl` [Compound 1.46, 2-chloro-N,N-dimethyl-4-((S)-1-(1-((R)-3,3,3-trifluoro-2-hydroxy-2-phenylpropanoyl)piperidin-4-yl)pyrrolidin-3-ylamino)benzamide], for which the IC50 in assay [4], in assay [6], in assay [5] and in assay [7] was greater than 30 µM each time. Besides, in assay [1], the EC50 was greater than 30 µM.

Take `CN(C)C(=O)c1ccc(NC2CN(C3CCN(C(=O)C4(c5cccc(F)c5)CCC4)CC3)C2)cc1Cl` [Compound 1.42, 2-chloro-4-(1-(1-(1-(3-fluorophenyl)cyclobutanecarbonyl)piperidin-4-yl)azetidin-3-ylamino)-N,N-dimethylbenzamide]: the IC50 is 16.1 µM in assay [4], greater than 30 µM in assay [6], greater than 30 µM in assay [5] and 15.1 µM in assay [7]. Moreover, the concentration for a half-maximal effect (EC50) in assay [1] amounted to 3.09 µM.

Take `CN(C)C(=O)c1ccc(-c2nnc(C3=CCN(S(=O)(=O)c4ccccc4Cl)CC3)s2)cc1Cl` [Compound 1.12, 2-chloro-4-(5-(1-(2-chlorophenylsulfonyl)-1,2,3,6-tetrahydropyridin-4-yl)-1,3,4-thiadiazol-2-yl)-N,N-dimethylbenzamide]: the IC50 in assay [3] is 14.6 µM; in assay [4] it was 15.3 µM; in assay [5], greater than 30 µM. Further, the EC50 came out at 0.211 µM in assay [1] and 4.1 µM in assay [2].

`CN(C)C(=O)c1ccc(NC2CN(C3CCN(C(=O)C(C)(C)c4ccccc4)CC3)C2)cc1Cl` [Compound 1.41, 2-chloro-N,N-dimethyl-4-(1-(1-(2-methyl-2-phenylpropanoyl)piperidin-4-yl)azetidin-3-ylamino)benzamide]: the IC50 in assay [4], in assay [6], in assay [5] and in assay [7] was greater than 30 µM throughout. The EC50 in assay [1] worked out at 5.75 µM.

Turning to `CC(C)[C@](O)(C(=O)N1CCC2(CC1)CN(C1CCN(c3ccc(C(=O)N(C)C)c(Cl)c3)CC1)C2)C(F)(F)F` (single isomer, unassigned) [Compound 1.74], the IC50 in assay [3] is greater than 30 µM. Besides, the values for the EC50 in assay [1] and in assay [2] were 0.75 µM and 1.25 µM, respectively.

For `CC(C)C(O)(C(=O)N1CCC(N2CC[C@H](Nc3ccc(C(=O)N(C)C)c(Cl)c3)C2)CC1)C(F)(F)F` (stereo partly drawn) [Compound 1.40, 2-chloro-4-((3S)-1-(1-(2-hydroxy-3-methyl-2-(trifluoromethyl)butanoyl)piperidin-4-yl)pyrrolidin-3-ylamino)-N,N-dimethylbenzamide], the IC50 in assay [4], in assay [6], in assay [5] and in assay [7] was greater than 30 µM each time. In assay [1], the EC50 came out at 23.6 µM.

As to `CN(C)C(=O)c1ccc(N2CCN(C3CC4(C3)CN(C(=O)[C@](O)(c3ccccc3)C(F)(F)F)C4)CC2)cc1Cl` (single isomer, unassigned) [Compound 1.17], the IC50 in assay [3] was 22.6 µM; in assay [4], greater than 30 µM; in assay [5], greater than 30 µM. In addition, the figures for the EC50 in assay [1] and in assay [2] were 0.156 µM and 10.6 µM, respectively.

As to `CN(C)C(=O)c1ccc(N2CCN(C3CC4(C3)CN(C(=O)[C@@](O)(c3ccccc3)C(F)(F)F)C4)CC2)cc1Cl` (single isomer, unassigned) [Compound 1.18], the results for the EC50 in assay [1] and in assay [2] were 1.58 µM and 5.96 µM, respectively.

As to `O=C(N1CCC(N2CCN(c3cc(Cl)c4c(=O)[nH]ccc4c3)CC2)CC1)C1(c2ccccc2)CCC1` [Compound 1.29, 8-chloro-6-(4-(1-(1-phenylcyclobutanecarbonyl)piperidin-4-yl)piperazin-1-yl)isoquinolin-1(2H)-one], the EC50 was found to be 0.92 µM in assay [1] and 8.63 µM in assay [2].
